# Test results taken from patent US12624050B2, “Three fused ring derivative-containing salt or crystal form and pharmaceutical composition thereof” (Shanghai Hansoh Biomedical Co., Ltd., priority 2019, dated 2026).
# Test: Screening of salts of the compound with counter ion acids
# Assay type: physicochemical
# Conditions: for Results (salt screening): acetone 0.2 mL, solid-liquid reaction, room temperature; for Results (salt screening) / Post-treatment (salt screening): base:acid=1:1.2; for Experimental results (salt screening): natural evaporation at room temperature; for Post-treatment (salt screening): suspended in 0.2 mL of methanol at 50° C.
# Protocol: 300 mg of free base was weighed, 15 mL of THE was added, and the mixture was heated to 50° C. to dissolve completely. The solution of the free base in THE was divided into […], and a certain amount of acid was added to each part (molar reaction ratio of base:acid=1:1.2), detailed as follows:
# 20 mg of free base was weighed, 0.2 mL of acetone was added, and the mixture was stirred and suspended at room temperature. Acid (molar reaction ratio of base:acid=1:1.2) was added to the suspension system for reaction, detailed as follows: […]
# 20 mg of free base was weighed, 0.2 mL of methanol was added, and the mixture was stirred and suspended at 50° C. Acid (molar reaction ratio of base:acid=1:1.2) was added to the suspension system for reaction, detailed as follows:
# THF was used as solvent in No. 1 to 10, and the free base was dissolved in THE to form a clear solution and then acid was added. Ethanol was used as solvent in No. 11 to 14, the free base was suspended in ethanol, and a clear solution formed after adding an acid. The clear solution formed in No. 1-14 was placed at room temperature without sealing the container to evaporate the solvent.
# [1] = acid: 1M oxalic acid in ethanol
# [2] = acid: 1M phosphoric acid in ethanol
structure (smiles),measurement,setting,value
"C[C@H](Nc1ccc2c(c1)OCCn1cc(N3C(=O)SC[C@H]3C(F)F)nc1-2)C(N)=O [Example 22, (S)-2-((2-((R)-4-(difluoromethyl)-2-oxothiazolidin-3-yl)-5,6-dihydrobenzo[f]imidazo[1,2-d][1,4]oxazepin-9-yl)amino)propionamide]",Results (salt screening),acid: 1M maleic acid in ethanol,"No reaction, free base remained"
same,Results (salt screening),acid: 1M methanesulfonic acid in ethanol,Mesylate was obtained
same,Results (salt screening),[1],"No reaction, free base remained"
same,Results (salt screening),[2],"No reaction, free base remained"
same,Experimental results (salt screening),"THF as solvent, acid: Adipic acid",Oil formed
same,Experimental results (salt screening),"THF as solvent, acid: Citric acid",Oil formed
same,Experimental results (salt screening),"THF as solvent, acid: Fumaric acid",Oil formed
same,Experimental results (salt screening),"THF as solvent, acid: Glycolic acid",Oil formed
same,Experimental results (salt screening),"THF as solvent, acid: Maleic acid",Oil formed
same,Experimental results (salt screening),"THF as solvent, acid: Malic acid",Oil formed
same,Experimental results (salt screening),"THF as solvent, acid: Oxalic acid",Oil formed
same,Experimental results (salt screening),"THF as solvent, acid: Phosphoric acid",Oil formed
same,Experimental results (salt screening),"THF as solvent, acid: Succinic acid",Oil formed
same,Experimental results (salt screening),"THF as solvent, acid: Tartaric acid",Oil formed
same,Experimental results (salt screening),"ethanol as solvent, acid: Benzenesulfonic acid",Amorphous
same,Experimental results (salt screening),"ethanol as solvent, acid: Hydrochloric acid",Amorphous
same,Experimental results (salt screening),"ethanol as solvent, acid: Isethionic acid",Amorphous
same,Experimental results (salt screening),"ethanol as solvent, acid: p-Toluenesulfonic acid",Amorphous
same,Post-treatment (salt screening),acid: 1M maleic acid in methanol,"No reaction, free base remained"
same,Post-treatment (salt screening),[1],"No reaction, free base remained"
same,Post-treatment (salt screening),[2],"No reaction, free base remained"
